In US9096560B2, “5-heterocyclylalkyl-3-hydroxy-2-phenylcyclopent-2-enones as herbicides” (Syngenta Limited, priority 2008, dated 2015):

What was measured:
Format in all cases: in vivo
Lolium perenne (LOLPE) [1] = assay: Example B pre-emergence herbicidal test, LOLPE; details: Lolium perenne, 312 h, rate 250 g/ha, evaluated after 13 days, 100=total damage to plant, 0=no damage to plant
In short: (§1)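 After sowing in standard soil, pots spent a day in the glasshouse (24/16° C, 14 h photoperiod, 65% humidity) before spraying with compound in acetone/water 50:50 with 0.5% Tween 20. Watering followed twice a day, and plants were evaluated 13 days on, with 100 meaning complete damage.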

[2] = test system: Alopecurus myosuroides (ALOMY); assay: Example B pre-emergence herbicidal test, ALOMY; details: Alopecurus myosuroides, 312 h, rate 250 g/ha, evaluated after 13 days, 100=total damage to plant, 0=no damage to plant
In short: as §1

[3] = test system: Echinochloa crus-galli (ECHCG); assay: Example B pre-emergence herbicidal test, ECHCG; details: Echinochloa crus-galli, 312 h, rate 250 g/ha, evaluated after 13 days, 100=total damage to plant, 0=no damage to plant
In short: as §1

Avena fatua (AVEFA) [4] = assay: Example B pre-emergence herbicidal test, AVEFA; details: Avena fatua, 312 h, rate 250 g/ha, evaluated after 13 days, 100=total damage to plant, 0=no damage to plant
In short: as §1

Lolium perenne (LOLPE) [5] = assay: Example B post-emergence herbicidal test, LOLPE; details: Lolium perenne, 312 h, rate 250 g/ha, evaluated after 13 days, scale 0-100, read-out: Post-emergence activity LOLPE (100=total damage to plant; 0=no damage to plant)
In short: (§2)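 Plants grown from seed in standard soil for 8 days in a glasshouse (24/16 °C day/night, 14 h light, 65% humidity), then sprayed with an aqueous solution from the active ingredient formulated in acetone/water (50:50) with 0.5% Tween 20. Damage scored after 13 days, 0 (none) to 100 (total).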

[6] = test system: Alopecurus myosuroides (ALOMY); assay: Example B post-emergence herbicidal test, ALOMY; details: Alopecurus myosuroides, 312 h, rate 250 g/ha, evaluated after 13 days, scale 0-100, read-out: Post-emergence activity ALOMY (100=total damage to plant; 0=no damage to plant)
In short: as §2

[7] = test system: Echinochloa crus-galli (ECHCG); assay: Example B post-emergence herbicidal test, ECHCG; details: Echinochloa crus-galli, 312 h, rate 250 g/ha, evaluated after 13 days, scale 0-100, read-out: Post-emergence activity ECHCG (100=total damage to plant; 0=no damage to plant)
In short: as §2

Avena fatua (AVEFA) [8] = assay: Example B post-emergence herbicidal test, AVEFA; details: Avena fatua, 312 h, rate 250 g/ha, evaluated after 13 days, scale 0-100, read-out: Post-emergence activity AVEFA (100=total damage to plant; 0=no damage to plant)
In short: as §2

| SMILES | pest or weed control at 250 g/ha (Lolium perenne (LOLPE) [1]) [%] | pest or weed control at 250 g/ha [2] [%] | pest or weed control at 250 g/ha [3] [%] | pest or weed control at 250 g/ha (Avena fatua (AVEFA) [4]) [%] | pest or weed control at 250 g/ha (Lolium perenne (LOLPE) [5]) [%] | pest or weed control at 250 g/ha [6] [%] | pest or weed control at 250 g/ha [7] [%] | pest or weed control at 250 g/ha (Avena fatua (AVEFA) [8]) [%] |
| --- | --- | --- | --- | --- | --- | --- | --- | --- |
| Cc1cc(C)c(C2=C(OC(=O)OCC(C)(C)C)CC(CC3CCOC3)C2=O)c(C)c1 (stereo not shown) [Compound P24] | 100 | 100 | 90 | 90 | 100 | 90 | 90 | 90 |
| Cc1cc(C)c(C2C(=O)CC(CC3CCN(C(=O)c4ccco4)CC3)C2=O)c(C)c1 (stereo not shown) [Compound T90] | 60 | 40 | 50 | 60 | 80 | 70 | 80 | 100 |
| Cc1cc(C)c(C2C(=O)CC(CC3CCN(C(=O)c4cc(C)on4)CC3)C2=O)c(C)c1 (stereo not shown) [Compound T119] | 80 | 40 | 100 | 30 | 90 | 90 | 90 | 80 |
| Cc1cc(C)c(C2C(=O)CC(CC3CCN(S(C)(=O)=O)CC3)C2=O)c(C)c1 (stereo not shown) [Compound T94] | 90 | 90 | 80 | 90 | 90 | 100 | 90 | 100 |
| Cc1cc(C)c(C2C(=O)CC(CC3CCS(=O)(=O)CC3)C2=O)c(C)c1 (stereo not shown) [Compound T7] | 80 | 70 | 100 | 50 | 80 | 100 | 90 | 90 |
| Cc1cc(-c2ccccc2)cc(C)c1C1C(=O)CC(CC2CCOC2)C1=O (stereo not shown) [Compound T159] | 70 | 50 | 100 | 30 | 100 | 90 | 100 | 90 |
| Cc1cc(C)c(C2C(=O)CC(CC3CCN(C(=O)c4ccc(Cl)c(Cl)c4)CC3)C2=O)c(C)c1 (stereo not shown) [Compound T74] | 30 | 30 | 50 | 20 | 40 | 70 | 100 | 90 |
| Cc1cc(C)c(C2=C(OC(=O)C(C)(C)C)CC(CC3CCCOC3)C2=O)c(C)c1 (stereo not shown) [Compound P37] | 100 | 100 | 70 | 70 | 90 | 90 | 90 | 90 |
| CCCCOC(=O)N1CCC(CC2CC(=O)C(c3c(C)cc(C)cc3C)C2=O)CC1 (stereo not shown) [Compound T69] | 10 | 0 | 20 | 10 | 30 | 30 | 20 | 30 |
| CON1CCC(CC2CC(OC(=O)c3ccccc3)=C(c3c(C)cc(C)cc3C)C2=O)CC1 (stereo not shown) [Compound P55] | 100 | 100 | 100 | 90 | 100 | 90 | 100 | 100 |
| COC(=O)N1CCC(/C=C2\CC(=O)C(c3c(C)cc(C)cc3C)C2=O)C1 (stereo not shown) [Compound T32] | 100 | 70 | 100 | 90 | 90 | 90 | 90 | 90 |
